We go through five molecules from patent US20180000750A1, “ANTIPLATELET AGENT AND USES THEREOF” (priority 2015, published 2018).

The target of series [1] is T1, platelet glycoprotein (GP) IIb/IIIa receptors (Homo sapiens, UniProt P05106+P08514).
T1 construct: It is a whole-blood assay based on light transmission measurements; endogenous in cells; host or cells: platelets in citrated whole blood of healthy volunteers
Description: VerifyNow GPIIb/IIIa assay (PAU). The class given is cell-based. To be noted: no treatment 161. From the text:
(§1) It is a whole-blood assay based on light transmission measurements. The assay is a turbidimetric-based optical detection system that, like optical aggregometry, depends on the ability of activated platelets to bind fibrinogen. When platelets are activated, they form aggregates with fibrinogen-coated beads and the light transmission through the samples increases. Arachidonic acid, ADP and thrombin receptor activating peptide are the corresponding agonists used in VerifyNow system to specifically differentiate the platelet activation pathways. In the aspirin-specific assay, the degree of aggregation attenuated by aspirin, which blocks the arachidonic acid pathway, is quantified according to a corresponding decrease in light transmission and is reported as aspirin reaction units (ARU). ARU value less than 550 indicates adequate platelet inhibition by aspirin treatment. The residual activity of platelet after inhibition on P2Y12 receptor is represented as the P2Y12 reaction units (PRU). The normal PRU distribution range without anti-platelet therapy is 194-418. P2Y12 antagonist like clopidogrel and ticagrelor may be used as the positive control. […] The reference range was 125-330. Aggrastat may be used as the positive control medication for PAU value.
(§2) The VerifyNow P2Y12 system measures the rate and extent of changes in light transmittance caused by platelets aggregating in whole blood samples.

In another series the test system is arachidonic acid pathway. Description: VerifyNow aspirin assay (ARU). The class given is cell-based, human. To be noted: no treatment 660.
Excerpt: as §1, §2

A further series concerns the target T2, P2Y12 receptor (Homo sapiens, UniProt Q9H244).
T2 construct: It is a whole-blood assay based on light transmission measurements; endogenous in cells; host or cells: platelets in citrated whole blood of healthy volunteers
Description: VerifyNow P2Y12 assay (PRU). To be noted: no treatment 314. The class given is cell-based.
Excerpt: as §1, §2

Series [2] deals with adhesion of THP-1 to HUVECs. Nature of the series: THP-1 cell adhesion to TNF-α-activated HUVECs. The class given is cell-based, human. To be noted: 80 μM, TNF-α-exposed cells, compared to TNF-α alone. The procedure:
HUVECs were starved in serum-free medium for 1 hour before treatments. For adhesion assays, HUVECs monolayers in 96-well plates were treated for 2 hours with physalin B and/or TNF-α for 4 hours. After treatment, 1×10^6 THP-1 cells labeled with 5 μM calcein-AM were seeded onto confluent HUVECs and co-cultured for 30 min at 37° C. in 5% CO2 incubator. Non-adherent THP-1 cells were removed by washing with 1× phosphate buffered saline (PBS) twice. Cell images were collected by a fluorescence microscope (Zeiss) and quantified using a fluorescence microplate reader at an excitation wavelength of 490 nm and an emission wavelength of 525 nm (Bio-Tek Synergy HT).
The in vitro adhesion of THP-1 to HUVECs was monitored by use of a fluorescence dye, Calcein-AM, which stains only the viable cells. Briefly, THP-1 cells were labeled with calcein-AM first, then co-cultured with physalin B pre-treated HUVECs in the presence of TNF-α, which was added to induce inflammation. The fluorescence intensity at 525 nm was then measured.

Another series relates to HUVECs. Description: MTT cell viability, HUVECs. The class given is cell-based, human. To be noted: 48 hrs, read-out: IC50 (cytotoxicity, MTT). The procedure: HUVECs were purchased from American Type Culture Collection (ATCC) and were cultivated in endothelal cell nutrient medium consisting of 20% heat-inactivated fetal bovine serum (FBS), 80% Medium 199 (M199) buffered with 25 mM HEPES and supplemented with 2 mM L-Glutamine and 100 U/ml K-Penicillin and 100 μg/mL streptomycin, and kept at 37° C. in a 5% CO2 atmosphere.
Cell viability was measured with blue formazan that was metabolized from 3-(4,5-dimethylthiazol-2-yl)-2, 5-diphenyl tetrazolium bromide (MTT, Amresco USA) in mitochondria, which is active only in live cells. HUVEC and late EPCs were seeded in a 96-well plate at a density of 1×10^5 cells per well, cultured overnight and pretreated with various concentrations of physalin B. After incubation for 6 hr, 24 hr and 48 hr, the MTT (5 mg/ml) colorimetric viability test was used to determine the viability of cells. The absorbance of each well was measured at 540 nm with an ELISA reader and the percentage viability was calculated.
The in vitro cytotoxic effect of physalin B on HUVEC and EPCs were respectively determined by MTT assay, in which cells were exposed to various concentrations of physalin B (i.e., 0, 20, 40, 80 and 160 μM). Results are illustrated in FIGS. 5A and 5B.

The next series is described as follows: Tail bleeding time. To be noted: mice, intraperitoneal, 0.1 mg/Kg, cut 30 minutes after treatment; DMSO vehicle 83.1±11.7 sec. The class given is in vivo, ICR mice. The source says: (§3) ICR mice (7-8 weeks old, each weighted about 18 to 25 g) were used in this study. All mice were maintained in the animal facility under 12 hrs light/dark cycle, with ad libitum access to food and water.
Briefly, the test mice were randomly divided into three groups, in which the control mice received intraperitoneal injection of normal saline, whereas mice in the vehicle and the test groups respectively received intraperitoneal injection of the vehicle (i.e., DMSO) and Physalin B (i.e., […]). A cut (about 2-3 mm in length) was incised on the tail vein of each mice (about 3-5 cm from the tip of the tail) 30 minutes after the indicated treatment, then the blood was collected into a warm saline, in which the volume and the time to cessation of bleeding were both measured. Bleeding time was defined as the time in which the first cessation of bleeding was observed. Results are illustrated in FIG. 2.

The subject of another series is late EPCs. Nature of the series: MTT cell viability, late EPCs. Type of series: cell-based, human. To be noted: 48 hrs, read-out: IC50 (cytotoxicity, MTT). The procedure: Two different types of EPCs were cultured from adult peripheral blood and defined as early EPCs and late EPCs according to their time-dependent appearance. […] Peripheral blood (20 mL) was obtained from donors with informed consent. The mononuclear cells were fractionated from other components of peripheral blood by centrifugation on Histopaque 1077 (Sigma, St. Louis, Mo.), with gradients according to the manufacturer's instructions. The isolated mononuclear cells were re-suspended with a EGM-2 BulletKit system (catalog number CC-3162; Clonetics™) consisting of an endothelial basal medium, 5% fetal bovine serum, hEGF, VEGF, hFGF-B, IGF-1, ascorbic acid, and heparin; 1×10^7 mononuclear cells per well were seeded on 2% gelatin-coated 6-well plates (Sigma, St. Louis, Mo.) and incubated in a 5% CO2 incubator at 37° C. […]
Cell viability was measured with blue formazan that was metabolized from 3-(4,5-dimethylthiazol-2-yl)-2, 5-diphenyl tetrazolium bromide (MTT, Amresco USA) in mitochondria, which is active only in live cells. […] The absorbance of each well was measured at 540 nm with an ELISA reader and the percentage viability was calculated.
The in vitro cytotoxic effect of physalin B on HUVEC and EPCs were respectively determined by MTT assay, in which cells were exposed to various concentrations of physalin B (i.e., 0, 20, 40, 80 and 160 μM). […]

Series [3] relates to platelets. Nature of the series: PFA-100 platelet function, collagen/epinephrine (CEPI) cartridge closure time. The class given is cell-based, human. To be noted: 10 μM, collagen-epinephrine stimulus, citrated whole blood; control 125 sec. The method, then: (§4) Ten healthy, non-smoking volunteers (6 women, 4 men), ages 23-39 years old, participated in this study. The citrated whole blood samples were incubated at room temperature for 60 min. with physalin B (dissolved in 0.5% DMSO) or the vehicle alone. Platelet function measurement was performed with a PFA-100 analyzer system (Dade-Behring, Marburg, Germany). The PFA-100TM device measures the closure time (CT) required for platelets to plug an aperture simulating an injured vessel after platelet activation by relevant stimuli, namely collagen-epinephrine (EPI) or collagen-ADP (ADP). The maximum value for closure time is 300 seconds and values greater than 300 seconds are reported as non-closure. The closure time was determined with duplicate samples of 800 μL using cartridges containing collagen-epinephrine or collagen-ADP membranes.
(§5) The PFA-100 system is a platelet function analyzer designed to measure platelet-related primary hemostasis. The system uses two disposable cartridges: a collagen/epinephrine (CEPI) and a collagen/ADP (CADP) cartridge.

The subject of series [4] is platelets. Description: Lactate dehydrogenase release from platelets (cytotoxicity). Type of series: cell-based. To be noted: up to 160 μM, 30 min at 37° C. The procedure: Cytotoxicity of physalin B on platelets were evaluated by measuring the release of lactate dehydrogenase (LDH). Platelets were suspended in Tyrodes's solution at a concentration of 3×10^8 platelets/ml. For positive control, platelets were disrupted by sonication at 4° C. for 30 sec at 40 kHz with a Biosonic Sonicator. The supernatant was used for LDH determinations. LDH activity was measured as an increase in the absorbance of NADH at 340 nm using lactate as substrates. The tests were carried out with a Toshiba Medical automatic chemical analyzer, TBA-200FR (Toshiba Medical products). The platelets were pretreated with various concentrations of physalin B for 30 min at 37° C., and the supernatant was used to measure the LDH activity.
In this example, the cytotoxic effect of physalin B on platelets was investigated by measuring the activity of lactate dehydrogenase (LDH) released from the ruptured platelets. The platelets were exposed to various concentrations of physalin B (PHB) or DMSO, which was used as the vehicle control, while sonication ruptured platelets served as a positive control. The final concentration of DMSO in the test medium was less than 0.1%. Results are depicted in FIG. 4.

Series [5] has as its system platelets. Nature of the series: PFA-100 platelet function, collagen/ADP (CADP) cartridge closure time. Type of series: cell-based, human. To be noted: 10 μM, collagen/ADP stimulus, citrated whole blood. The procedure:
as §4, §5

Series [6] can be described thus: Occlusion time for irradiation induced platelet plug formation in mesenteric venules. The class given is in vivo, ICR mice. To be noted: mice, DMSO vehicle 241±6.8 sec.
Excerpt: as §3
In this example, the effects of Physalin B on the aggregation of platelets were investigated by the measurement of the occlusion time for irradiation induced platelet plug formation. Briefly, mice were respectively treated with normal saline, DMSO vehicle, and Physalin B (i.e., 0.025, 0.05, or 0.1 mg/g), then the mesentertic venules were selected for irradiation to induce microthrombus formation. The occlusion time was defined as the time in which the platelet plug was first observed. Results are illustrated in FIG. 3.

Where [7] appears, read: reference drug treatment, normal range 194-418.

T2 sequence (Q9H244 whole entry): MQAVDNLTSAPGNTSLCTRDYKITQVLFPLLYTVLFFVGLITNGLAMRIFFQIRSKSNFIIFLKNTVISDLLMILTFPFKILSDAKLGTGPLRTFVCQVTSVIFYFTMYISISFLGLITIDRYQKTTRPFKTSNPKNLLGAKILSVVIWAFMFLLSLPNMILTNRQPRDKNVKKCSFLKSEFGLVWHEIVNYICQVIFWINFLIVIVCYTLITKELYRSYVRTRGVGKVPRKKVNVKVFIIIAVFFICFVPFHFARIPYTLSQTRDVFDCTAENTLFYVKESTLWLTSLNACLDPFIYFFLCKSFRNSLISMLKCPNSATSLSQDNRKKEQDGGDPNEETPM
T1 sequence (P08514 32-887 limits assumed): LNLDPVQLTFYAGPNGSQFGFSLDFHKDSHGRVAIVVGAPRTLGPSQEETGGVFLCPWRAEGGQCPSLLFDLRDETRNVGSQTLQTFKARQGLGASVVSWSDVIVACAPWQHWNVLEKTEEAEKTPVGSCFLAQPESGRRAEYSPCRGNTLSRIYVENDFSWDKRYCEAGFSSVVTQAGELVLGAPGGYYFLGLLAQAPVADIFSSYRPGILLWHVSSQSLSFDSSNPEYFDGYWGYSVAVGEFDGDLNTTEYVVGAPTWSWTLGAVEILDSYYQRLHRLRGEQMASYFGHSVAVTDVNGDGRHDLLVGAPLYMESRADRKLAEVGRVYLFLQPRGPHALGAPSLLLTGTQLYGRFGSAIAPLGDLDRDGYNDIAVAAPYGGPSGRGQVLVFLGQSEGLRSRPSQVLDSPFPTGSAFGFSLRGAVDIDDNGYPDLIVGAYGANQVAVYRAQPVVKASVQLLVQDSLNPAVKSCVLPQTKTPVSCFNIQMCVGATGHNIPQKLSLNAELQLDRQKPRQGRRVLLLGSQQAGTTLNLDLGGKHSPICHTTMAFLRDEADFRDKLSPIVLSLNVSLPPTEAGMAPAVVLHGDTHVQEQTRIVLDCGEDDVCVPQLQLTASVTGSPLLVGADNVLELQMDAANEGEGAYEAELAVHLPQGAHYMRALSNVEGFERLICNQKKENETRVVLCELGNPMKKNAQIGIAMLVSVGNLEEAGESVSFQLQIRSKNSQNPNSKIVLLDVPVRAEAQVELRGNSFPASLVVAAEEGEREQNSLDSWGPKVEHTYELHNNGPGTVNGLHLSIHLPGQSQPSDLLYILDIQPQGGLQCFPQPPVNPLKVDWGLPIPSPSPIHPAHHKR
T1 sequence (P08514 891-1039 limits assumed): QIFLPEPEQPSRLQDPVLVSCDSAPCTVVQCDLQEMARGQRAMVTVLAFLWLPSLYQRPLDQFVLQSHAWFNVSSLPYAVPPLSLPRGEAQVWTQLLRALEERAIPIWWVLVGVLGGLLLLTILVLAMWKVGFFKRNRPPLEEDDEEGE
T1 sequence (P05106 27-788): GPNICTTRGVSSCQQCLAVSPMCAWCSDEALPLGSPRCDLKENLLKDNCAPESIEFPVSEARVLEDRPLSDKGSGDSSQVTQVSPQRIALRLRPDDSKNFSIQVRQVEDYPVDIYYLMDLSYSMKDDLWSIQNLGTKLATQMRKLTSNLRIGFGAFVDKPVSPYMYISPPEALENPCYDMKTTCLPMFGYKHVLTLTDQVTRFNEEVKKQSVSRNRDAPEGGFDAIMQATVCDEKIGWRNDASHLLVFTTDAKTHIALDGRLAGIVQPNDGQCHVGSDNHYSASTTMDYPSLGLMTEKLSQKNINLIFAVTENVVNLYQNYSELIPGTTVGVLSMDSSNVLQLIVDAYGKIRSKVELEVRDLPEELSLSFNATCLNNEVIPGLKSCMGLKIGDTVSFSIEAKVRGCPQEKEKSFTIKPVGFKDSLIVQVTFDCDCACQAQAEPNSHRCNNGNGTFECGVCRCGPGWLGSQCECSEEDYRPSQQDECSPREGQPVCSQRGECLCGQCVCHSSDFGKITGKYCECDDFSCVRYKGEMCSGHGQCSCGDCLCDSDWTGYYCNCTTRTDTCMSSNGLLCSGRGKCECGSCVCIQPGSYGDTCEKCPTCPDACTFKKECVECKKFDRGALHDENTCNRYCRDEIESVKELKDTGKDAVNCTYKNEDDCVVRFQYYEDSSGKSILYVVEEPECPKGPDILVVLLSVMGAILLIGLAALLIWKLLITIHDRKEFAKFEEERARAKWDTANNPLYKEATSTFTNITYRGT

In the case of `CCCCS(=O)(=O)N[C@@H](Cc1ccc(OCCCCC2CCNCC2)cc1)C(=O)O` [Aggrastat, reference compound], in [1] (reference drug treatment, reference range 125-330), the “GPIIb/IIIa (PAU)” value is 1 PAU.

For the molecule `CC(=O)Oc1ccccc1C(=O)O` [Aspirin, Acetylsalicylic acid, reference compound], the “Aspirin (ARU)” value with arachidonic acid pathway (reference drug treatment, <550 indicates adequate inhibition) turned out to be 404 ARU.

In the case of `COC(=O)[C@H](c1ccccc1Cl)N1CCc2sccc2C1` [Clopidogrel, reference compound], on P2Y12 receptor (setting [7]), the “P2Y12 (PRU)” value was determined as 263 PRU.

On to `C[C@]12C(=O)C=CCC1=CC[C@@H]1[C@@H]2CC[C@]2(O)C(=O)O[C@@]3(C)[C@H]4C[C@]5(C)[C@@H](CO[C@@]16O[C@@]32[C@H]5C6=O)C(=O)O4` [Physalin B], for which the “inhibition on the adhesion of THP-1 to HUVECs” value in series [2] is “about 35%”. Further, the half-inhibitory concentration (IC50) – broadly, the midpoint of a concentration-inhibition curve – in the series on HUVECs amounted to 30 µM; in the series on late EPCs it was 76 µM. Besides, the “Aspirin (ARU)” value in the series with arachidonic acid pathway (20 μM) is on record as 469 ARU; in the series on arachidonic acid pathway (50 μM) it was 366 ARU. In the series “Tail bleeding time”, this molecule returned a tail bleeding time of 224.4 ± 58.9 s. The “GPIIb/IIIa (PAU)” value in [1] (20 μM) was found to be 144 PAU; in series [1] (50 μM), 129 PAU. Besides, the closure time in the series with platelets [3] is 260 s; with platelets [5] it was “statistically significant prolonged closure time”. Also, in the series on platelets [4], the “LDH release from platelets” value was “no obvious LDH release”. In addition, the “P2Y12 (PRU)” value came to 226 PRU at P2Y12 receptor (20 μM) and 65 PRU on P2Y12 receptor (50 μM). Also, the occlusion time turned out to be 349 ± 12.3 s in [6] (0.025 mg/g), 390 ± 7 s in [6] (0.05 mg/g) and 415 ± 34.5 s in series [6] (0.1 mg/g).

Take `CCCSc1nc(N[C@@H]2C[C@H]2c2ccc(F)c(F)c2)c2nnn([C@@H]3C[C@H](OCCO)[C@@H](O)[C@H]3O)c2n1` [Ticagrelor, reference compound]: the “P2Y12 (PRU)” value at P2Y12 receptor (setting [7]) is given as 1 PRU.
